{"source": "patent US8580776B2", "about": "“Compositions and methods for treating neurodegenerating diseases” (The Board of Trustees of the University of Illinois, priority 2007, dated 2013)", "key": {"TgAPP H6 mice": {"test_system": "TgAPP H6 mice", "assay": "Amyloid plaque burden (Aβ1-42 staining) in brain sections of TgAPP H6 mice", "assay_type": "in vivo", "from_the_text": "Transgenic mice (H6) overexpressing the Indiana V717F mutation of human APP under control of the PDGFR promoter (Mucke et al., 2000, “High-level neuronal expression of abeta 1-42 in wild-type human amyloid protein precursor transgenic mice: synaptotoxicity without plaque formation,” J Neurosci 20:4050-8) were obtained from Dr. Lennart Mucke (J. David Gladstone Institute, San Francisco, Calif.). Male hemizygous H6 mice were bred to wild type C57BL6 (Charles River Breeding) females to obtain hemizygous progeny. Genotype was verified by PCR analysis of tail DNA using the forward primer 5′-GGTGAGTTTGTAAGTGATGCC-3′ (SEQ ID NO:1) and reverse primer 5′-TCTTCTTCTTCCACCTCAGC-3′ (SEQ ID NO:2). Animals were housed in groups of four under standard conditions with full access to food and water.\nHemizygous male H6 mice (aged 3 to 4 months) were injected with vehicle or with DSP4 (5 mg per kg; i.p., every two weeks) and all mice were sacrificed at age 9 months. This protocol (a low, chronic dose) results in 70% loss of LC noradrenergic neurons. Brains were dissected, the left hemispheres were fast frozen in isopentane at −30° C. and stored at −80° C. for subsequent protein and RNA studies. The right hemispheres were processed for immunohistochemistry.\nTgAPP H6 mice were treated with DSP4 (5 mg/kg every two weeks) beginning at age 3-4 months, and brain sections analyzed at age 9 months (FIGS. 1A-1B). Hemibrains were fixed overnight in 4% paraformaldehyde in 0.1M phosphate buffer, then overnight in 10% sucrose in 0.1M phosphate buffer, and then frozen in isopentane at −30° C. Serial sections (35 um thick) were prepared on a cryostat, and stored in cryoprotective solution (0.1M phosphate buffer: ethyleneglycol: glycerol 30:40:30) at −20° C. For Aβ1-42 staining, sections were treated with formic acid (95%, 3 min), incubated overnight at 4° C. with primary antibody directed against Aβ1-42 (1:4000 dilution, Calbiochem FCA3542 rabbit polytonal antibody raised against a synthetic peptide corresponding to amino acids 706-713 of human APP), washed, then incubated with anti-rabbit biotinylated secondary antibody (Vector BA-1000, diluted 1:400) and visualized using an ABC kit (Vector). For quantification of Aβ plaques, for each animal (n=6 vehicle treated and n=6 DSP4 treated mice) 8 stained, serial sections separated by 210 μm and spanning approximately 1.5 mm between Bregma points −1.50 mm to −3.00 mm were mounted onto glass slides and imaged with a Zeiss Axiophot 2 microscope, equipped with an Axiocam B&W MRm camera. Sections were viewed at 100× using a 10× objective, and the average plaque number and % area stained (relative to the total section area of 21 mm^2) per section were determined. The threshold of brightness intensity (range black=0 to white=255) used for selection of plaques was established by determining average pixel intensity from 3 areas devoid of staining, and then adjusting that value to maximize inclusion of all visibly-stained plaques while minimizing inclusion of background areas. This value was used for all sections (all stained at the same time). For all sections, visual inspection following automated counting was done to ensure exclusion of meninges, ventricular space, or other artifacts.\nRepresentative sections from vehicle (FIG. 1A, containing 19 plaques) and DSP4 treated (B, containing 64 plaques) mice are shown in FIG. 1. Plaque burden (number and area stained) was quantified using Axiovision 4.5 Measurement Wizard software. Sections were viewed at 100× using a 10× objective, and the average plaque number (FIG. 1C) and % area stained (FIG. 1D, relative to the total section area of 21 mm^2) per section determined (n=8 sections per animal). The data was analyzed by two-tailed t-test assuming equal variances; *, P <0.05. The relative size distribution for all plaques detected in vehicle (n=626) and DSP4 treated (n=3009) brain sections is shown (FIG. 1E). […]"}, "neprilysin (NEP)": {"test_system": "neprilysin (NEP)", "assay": "QPCR of neprilysin mRNA in brain samples", "assay_type": "in vivo, mice", "conditions": "cortical samples, versus vehicle", "procedure": "(§1) Total cytoplasmic RNA from tissues was isolated using TRIZOL reagent, (Invitrogen/GIBCO); aliquots were converted to cDNA using random hexamer primers, and mRNA levels were estimated by quantitative touchdown PCR (QPCR). PCR conditions were 35 cycles of denaturation at 94° C. for 10 s; annealing at 58-64° C. for 15 s; and extension at 72° C. for 20 s on a Corbett Rotorgene Real-Time PCR unit (Corbett, Australia). PCR was done using Taq DNA Polymerase (Invitrogen), and contained SYBR Green (SybrGreen1 10,000× concentrate, diluted 1:10,000; Molecular Probes, Eugene, Oreg.). Relative mRNA concentrations were calculated from the takeoff point of reactions using manufacturer's software, and were normalized to α-tubulin, β-actin, and glyceraldehyde-3-phosphate dehydrogenase (GDH). Melting curve analysis and agarose gel electrophoresis ensured production of single and corrected size products. The primers used were: […]\n(§2) Comparative real time RT-PCR (or quantitative PCR, QPCR) was used to measure mRNA levels of the Aβ degrading enzymes neprilysin (Nep) and insulin degrading enzyme (IDE) in brain samples from vehicle and DSP4 treated mice (FIG. 4A). […] To assess the effects of dose, mouse neuronal N2A cells were incubated with increasing does of NA for 24 hr after which NEP activity was measured (FIG. 4D, data is mean±sd and is from n=3 samples). […]"}, "[1]": {"test_system": "insulin degrading enzyme (IDE)", "assay": "QPCR of insulin degrading enzyme mRNA in brain samples", "assay_type": "in vivo, mice", "conditions": "cortical samples, versus vehicle", "procedure": "as §1, §2"}}, "data": [{"smiles": "CCN(CCCl)Cc1ccccc1Br", "note": "[DSP4, N-(2-chloroethyl)-N-ethyl-2-bromobenzylamine]", "values": [{"measurement": "average plaque number", "setting": "TgAPP H6 mice; DSP4 5 mg/kg every two weeks, age 9 months, vehicle 13.5±3", "result": "62.7±18", "unit": "per section"}, {"measurement": "average area stained", "setting": "TgAPP H6 mice; DSP4 5 mg/kg every two weeks, age 9 months, vehicle 1,810±464", "result": "11,100±3,000 μm^2"}, {"measurement": "plaques >5,000 μm^2 out of all plaques detected", "setting": "TgAPP H6 mice; DSP4 sections, vehicle 1/626", "result": "16/3009"}, {"measurement": "relative plaque size distribution", "setting": "TgAPP H6 mice; age 9 months", "result": "did not significantly alter"}, {"measurement": "increase in plaque number", "setting": "TgAPP H6 mice; age 9 months, versus vehicle", "result": 5, "unit": "fold"}, {"measurement": "area stained as % total sectional area", "setting": "TgAPP H6 mice; age 9 months, vehicle 0.008%", "result": 0.051, "unit": "%"}, {"measurement": "plaque appearance in non-transgenic wild type littermates", "setting": "TgAPP H6 mice; data not shown", "result": "did not induce plaque appearance"}, {"measurement": "average plaque size", "setting": "TgAPP H6 mice; n=3009 plaques, vehicle 135±18, increase not statistically significant", "result": "174±8", "unit": "μm^2"}, {"measurement": "plaques with size greater than 7,000 μm^2", "setting": "TgAPP H6 mice; out of 3009 counted", "result": "13 out of 3009"}, {"measurement": "plaques in representative section", "setting": "TgAPP H6 mice; representative section FIG. 1B, vehicle 19", "result": 64, "unit": "plaques"}, {"measurement": "reduction of NEP mRNA levels", "setting": "neprilysin (NEP)", "result": "approximately 20%"}, {"measurement": "levels of insulin degrading enzyme (IDE) mRNA", "setting": "[1]", "result": "small, non-significant reductions"}]}]}
